In patent US7163952B2, “Azole compound and medicinal use thereof” (Japan Tobacco Inc., priority 2001, dated 2007):

Columns and labels:
db/db mice = test: Blood lipid lowering action in db/db mice, oral administration once a day for 14 days; format: in vivo; conditions: non-fasting; for Plasma triglyceride concentration (mg/dL) Day 7: Day 7 (control group 508); for Plasma triglyceride concentration (mg/dL) Day 14: Day 14 (control group 622)
Protocol: A 0.5% methyl cellulose suspension of the test compound was orally administered to 7-week-old db/db mice once a day for 14 days. The 0.5% methyl cellulose solution alone was administered to the control group.
The blood was drawn from the orbital vein with light ether anesthesia before test compound administration on day 7 day 14 under non-fasting condition. The blood thus drawn was separated by centrifugation and the plasma triglyceride concentration was measured from the obtained plasma according to the enzyme method (triglyceride measure kit).

[1] = target: T1, recombinant human protein tyrosine phosphatase 1B (Homo sapiens, UniProt P18031); test: Protein tyrosine phosphatase 1B inhibitory action (malachite green, phosphorylated insulin receptor peptide substrate); format: biochemical; conditions: recombinant human PTP1B, 60 min room temperature, absorbance at 650 nm
T1 construct: purchased UBI
T1 sequence (P18031 1-435): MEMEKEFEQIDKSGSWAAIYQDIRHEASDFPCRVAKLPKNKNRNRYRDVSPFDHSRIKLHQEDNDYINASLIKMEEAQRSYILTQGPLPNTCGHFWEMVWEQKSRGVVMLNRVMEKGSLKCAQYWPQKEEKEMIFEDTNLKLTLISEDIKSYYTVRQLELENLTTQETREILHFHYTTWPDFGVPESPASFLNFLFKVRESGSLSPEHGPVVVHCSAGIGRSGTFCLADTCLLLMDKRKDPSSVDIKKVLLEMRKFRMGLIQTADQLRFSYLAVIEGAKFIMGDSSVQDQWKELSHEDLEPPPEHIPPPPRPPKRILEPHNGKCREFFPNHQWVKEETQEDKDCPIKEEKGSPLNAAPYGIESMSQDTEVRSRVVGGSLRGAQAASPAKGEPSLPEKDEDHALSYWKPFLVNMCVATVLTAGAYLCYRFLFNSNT
Protocol: Preparation of Assay Buffer:
50 mM Tris-HCl buffer (pH 7.5), and 50 mM NaCl and 3 mM dithiothreitol (DTT) were prepared.
Respective 10 mM DMSO solutions of 0.1, 0.3, 1, 3 and 10 μM test compounds were diluted with the above-mentioned assay buffer so that the final dimethyl sulfoxide (DMSO) concentration would be not more than 1%. As a control, an assay buffer was used.
Preparation of Substrate:
A synthetic peptide consisting of 12 amino acids corresponding to 1142nd–1153rd of insulin receptor sequence, wherein three tyrosines therein had been phosphorylated, was diluted with the above-mentioned assay buffer to 80 μM.
A recombinant human protein tyrosine phosphatase 1B (manufactured by UBI) was diluted with the above-mentioned assay buffer (1.2 ng/25 μl).
A sample (10 μl) and a substrate (25 μl) prepared as mentioned above were successively added to a 96 well plate, and an enzyme (25 μl) prepared as mentioned above was added and mixed. After incubation at room temperature for 60 min., malachite green (120 μl, Biomol), which is a phosphorus color fixing agent, was added, and the mixture was further incubated at room temperature for 20 min. to allow color development. The absorbance at 650 nm was measured on a plate reader, and the protein tyrosine phosphatase 1B inhibitory action of the test compound was evaluated.

male ob/ob mice = test: Hypoglycemic action in ob/ob mice, oral administration; format: in vivo; conditions: Mus musculus, dose 3 mg/kg oral, fasting, 3 hr after administration, relative to control group, read-out: Decrease in blood glucose level (%) 3 hr
Protocol: A 0.5% methyl cellulose suspension of the test compound was orally administered to male ob/ob mice (6 to 9 weeks old) grouped based on blood glucose level. A 0.5% methyl cellulose solution alone was administered to a control group.
The blood was drawn from the orbital vein with anesthesia at 3 hours after the administration. The blood was drawn under fasting by removing the feed immediately before test compound administration. The blood thus drawn was separated by centrifugation and the blood glucose level was measured from the obtained plasma according to the hexokinase method (glucose measure kit). For evaluation, decrease in the blood glucose level of the test compound administration group relative to the control group was shown in percentage.

Row | melting point [°C] | IC50 [1] [µM] | SMILES | Plasma triglyceride concentration (mg/dL) Day 7 (db/db mice; dose 10 mg/kg oral once a day) [mg/dL] | Plasma triglyceride concentration (mg/dL) Day 14 (db/db mice; dose 10 mg/kg oral once a day) [mg/dL] | Plasma triglyceride concentration (mg/dL) Day 7 (db/db mice; dose 30 mg/kg oral once a day) [mg/dL] | Plasma triglyceride concentration (mg/dL) Day 14 (db/db mice; dose 30 mg/kg oral once a day) [mg/dL] | inhibition in vivo at 3 mg/kg (male ob/ob mice) [%]
1 | 240 |  | CN(Cc1ccc(C2CCCCC2)cc1)c1ccc(-c2csc(N(C)Cc3ccc(C(=O)[O-])cc3)n2)cc1.[Na+] [Example 102, sodium 4-(N-(4-(4-(N-(4-cyclohexylbenzyl)-N-methylamino)phenyl)-2-thiazolyl)-N-methylaminomethyl)benzoate] | 277 | 349 | 250 | 307 | 
2 | 188 to 190 | 0.26 | O=C(O)c1ccc(CN(CC2CCCCC2)c2nc(-c3nc4ccc(OCc5ccc(Cl)c(Cl)c5)cc4o3)cs2)cc1 [Example 217, 4-((N-cyclohexylmethyl-N-(4-(6-(3,4-dichlorobenzyloxy)-2-benzooxazolyl)-2-thiazolyl)amino)methyl)benzoic acid] |  |  |  |  | 20
3 | 185 to 191 | 0.15 | CC1CCC(c2ccc(CN(C)c3ccc(-c4csc(N(C)Cc5ccc(C(=O)O)cc5)n4)cc3)cc2)CC1 (centres unmarked) [Example 218, 4-((N-methyl-N-(4-(4-(N-methyl-N-(4-(4-methylcyclohexyl)benzyl)amino)phenyl)-2-thiazolyl)amino)methyl)benzoic acid] |  |  |  |  | 27
4 | 114 to 115 | 0.15 | CCCC(CCC)c1ccc(CN(C)c2ccc(-c3csc(N(C)Cc4ccc(C(=O)O)cc4)n3)cc2)cc1 [Example 230, 4-((N-methyl-N-(4-(4-(N-methyl-N-(4-(1-propylbutyl)benzyl)amino)phenyl)-2-thiazolyl)amino)methyl)benzoic acid] |  |  |  |  | 40
